The source of these data is patent US20230048678A1, “ICAN DERIVATIVES FOR ANTIFUNGAL USE” (DEBRECENI EGYETEM, priority 2019, published 2023).

Series [1] relates to C. parapsilosis ATCC 22019. Nature of the series: CLSI broth microdilution susceptibility (Table 1). The format is cell-based. The conditions noted are these: 48 h, 35° C. On the procedure:
(§1) ICAN has 3 key moieties, namely the amino, naphthalene and isonitrile. To find out which ones of them are essential for the antifungal behavior and to design more efficient derivatives, comparative studies were carried out, where one of the moieties was exchanged or eliminated. All ICAN derivatives were tested against C. albicans SC5314, C. krusei ATCC 6258 and C. parapsilosis ATCC 22019. The antifungal agents were dissolved in 100% DMSO and diluted further in RPMI-1640 (with L-glutamine but without bicarbonate) and buffered to pH 7.0 with 0.165 M morpholinopropanesulfonic acid (MOPS). MICs were read visually after 48-h incubation at 35° C. using the partial (50%) inhibition (for ICAN derivatives) (PI) and total inhibition (for AMB and ICAN derivatives) (TI) criteria. MICs were determined at least twice.
(§2) The tested C. albicans, C. tropicalis, C. parapsilosis, C. glabrata and C. krusei ATCC strains and clinical isolates are listed in Table 2. MICs were determined according to the CLSI M27-A3 [22]. Antifungal agents were dissolved in 100% DMSO and diluted further in RPMI-1640 (with L-glutamine but without bicarbonate) (Sigma, Budapest, Hungary), and buffered to pH 7.0 with 0.165 M morpholinopropanesulfonic acid (MOPS; Sigma, Budapest, Hungary). The final concentration ranges used for AMB and ICAN derivatives were 0.125 to 4 μg/ml and 0.04 to 20 μg/ml, respectively. Yeast cell suspensions were prepared in RPMI 1640 medium and were adjusted to give a final inoculum concentration of 0.5×10^3 to 2.5×10^3 cells/ml. MICs were read visually after 48-h incubation at 35° C. using the partial (50%) inhibition (for ICAN derivatives) (PI) and total inhibition (for AMB and ICAN derivatives) (TI) criteria. MICs were determined at least twice. For amphotericin B isolates with MIC values of ≤2 mg/L were considered wild-types. [Pfaller M A, 2012]
(In general: In broth dilution the organism is exposed to a series of concentrations in liquid medium.)

Series [2] relates to C. albicans SC5314. As to the kind of experiment: CLSI broth microdilution susceptibility (Table 1). The conditions noted are these: 48 h, 35° C. The format is cell-based. On the procedure: as §1, §2
The subject of series [3] is C. krusei ATCC 6258. Nature of the series: CLSI broth microdilution susceptibility (Table 1). The format is cell-based. To be noted: 48 h, 35° C. On the procedure:
as §1, §2

The test system of series [4] is C. albicans SC5314, C. krusei ATCC 6258 and C. parapsilosis ATCC 22019. Nature of the series: CLSI broth microdilution, MIC summarised over the three Candida test strains. The format is cell-based. The conditions noted are these: value or range over the three Candida strains of Table 1, total inhibition. On the procedure: as §1, §2
Series [5] deals with C. albicans 3666. Nature of the series: Time-lapse imaging of fungal growth in infected HaCat cultures. The format is cell-based. To be noted: 7.5 μg/ml, HaCat cells infected with C. albicans 3666, 24 h; DMSO control exceeded 1000%. The text has this:
As we mentioned in the Background art, studies have been carried out to successfully utilize 1-N-methylamino-5-isocyanonaphthalene (MICAN) as vital cell dye on different human cell lines [Nagy Z L, 2018]. […] Since these dyes are nonpolar, they are expected to easily bind to and stain the nonpolar chitin in the cell wall of different fungi species. We tested this assumption on common yeast from a local shop, and much to our surprise after staining, the yeast cells stopped growing and died in a short time. Repeated experiments led to the same conclusion; however, the applied dye concentration was well below the LD50 determined for human cells. […] It should be noted, however, that in the case of the untreated HaCat cells the fungal growth exceeded 1000% (24 h) calculated from the hyphal area (FIG. 1b, DMSO control). […]
Image analysis plug-ins were developed by a Java-based image processing software, The ImageJ v1.39d (US National Institutes of Health) program enabled the quantitative analysis of fungi. The software is requesting a set of data for the analysis from the user, along with the directory in which the bank of images to be analysed are contained. Image processing and quantitative image analysis were carried out as previously described [Nagy G, 2014]. […]

In series [6] the test system is HaCat cells. Nature of the series: HaCat cell damage during time-lapse imaging. The format is cell-based, human. To be noted: under 24 hours, MICAN-treated infected cultures. The source says:
(§3) As we mentioned in the Background art, studies have been carried out to successfully utilize 1-N-methylamino-5-isocyanonaphthalene (MICAN) as vital cell dye on different human cell lines [Nagy Z L, 2018]. […] Since these dyes are nonpolar, they are expected to easily bind to and stain the nonpolar chitin in the cell wall of different fungi species. We tested this assumption on common yeast from a local shop, and much to our surprise after staining, the yeast cells stopped growing and died in a short time. Repeated experiments led to the same conclusion; however, the applied dye concentration was well below the LD50 determined for human cells. We assumed that these compounds may have antifungal effect, therefore C. albicans, one of the most common human pathogenic fungi was selected for further tests. HaCat cell cultures (spontaneously transformed aneuploid immortal keratinocyte cells from adult human skin) were infected with C. albicans 3666 (same isolate as used in animal experiments) and were treated with different concentrations of MICAN dissolved in DMSO. The fungal growth was followed by time lapse imaging for 24 hours. […] It should be noted, however, that in the case of the untreated HaCat cells the fungal growth exceeded 1000% (24 h) calculated from the hyphal area (FIG. 1b, DMSO control).

The test system of series [7] is commercial strain of Saccharomyces cerevisiae. Nature of the series: Staining/growth of common yeast. The format is cell-based.
Description: as §3

Series [8] deals with human cell cultures. As to the kind of experiment: MTT bio assay cytotoxicity. The format is cell-based. To be noted: MTT bio assay technique. In general terms: Tetrazolium assays rely on reduction of a dye to a coloured formazan, in cell work by metabolically active cells.

With `[C-]#[N+]c1cccc2c(NC)cccc12` [MICAN, N-methyl-1-amino-5-isocyanonaphthalene], the MICPI is 0.15 µg/mL in series [1] (partial (50%) inhibition), 0.3 µg/mL in series [2] (partial (50%) inhibition) and 0.15 µg/mL in series [3] (partial (50%) inhibition). The MICTI in series [1] (total inhibition) is 0.75 µg/mL; in series [2] (total inhibition) it was 1.25 µg/mL; in series [3] (total inhibition), 1.25 µg/mL; in series [4] it was 0.75 to 1.25 µg/mL. Also, in series [5], the “fungal growth calculated from the hyphal area” value is reported as about 30%. The “damage of treated HaCat cells” value in series [6] is given as “no sign of damage”. Also, the “antifungal effect on yeast” value in series [7] was “effective”. In series [8], the LD50 worked out at 18 µg/mL.
